Data as given in US20070209082A1, “Txr1 and enhanced taxane sensitivity based on the modulation of a pathway mediated thereby” (priority 2005, published 2007).
Read-outs that look alike come from different tables or passages of the source. Ends that are not written are not given here.

Columns and labels:
Clone 18 [1] = experiment: MTT assay of drug sensitivity, Clone 18 cells; details: for Fold of resistance (Clone 18/M2182tTA): IC50 of clone 18 divided by IC50 of M2182tTA; for Effect on taxol resistance / taxol cytotoxicity of clone 18: agent added with taxol, MTT assay
Description: (§1) For subsequent plate assays of the effects of taxol and other drugs on colony formation, 1×10^4 cells per 10 cm plate or per each well of six-well plate were seeded one day prior to drug treatment at the concentrations indicated. After 7 to 14 days exposure to drug, the resistant colonies were stained with 0.5% crystal violet solution and photographed. For quantitative determination of the surviving fraction, the collection of crystal violet stained colonies were incubated with 0.5 ml of DMSO overnight and the absorbance at 570 nm of dye extracted solution was measured. The fraction of surviving cells was calculated relative to non-treated controls. Results were averaged from at least two to three independent experiments. For IC50 determination, 3×10^3 cells per well of a 96-well plate were seeded one day prior to treatment by serially diluted drugs or in combination with indicated protein/peptides. The viability of treated cells was quantified by their ability to reduce tetrazolium salt 3-(4,5-dimethylthiazol-2-y)-2,5-diphenyl tetrasodium bromide (MTT, Sigma) to a formazan dye whose absorbance is detectable at 570 nm. The IC50 value was defined as the dose of taxol that inhibited cell growth by 50%.

M2182tTA = experiment: MTT assay of drug sensitivity, M2182tTA cells; assay type: cell-based, human; details: for Effect on killing of naive M2182tTA cells by taxol: agent added with taxol
Description: as §1

Clone 18 cells = experiment: TUNEL assay of apoptosis, clone 18 cells; assay type: cell-based, human; details: clone 18, TSP-1 plus taxol
Description: For subsequent plate assays of the effects of taxol and other drugs on colony formation, 1×10^4 cells per 10 cm plate or per each well of six-well plate were seeded one day prior to drug treatment at the concentrations indicated. After 7 to 14 days exposure to drug, the resistant colonies were stained with 0.5% crystal violet solution and photographed. For quantitative determination of the surviving fraction, the collection of crystal violet stained colonies were incubated with 0.5 ml of DMSO overnight and the absorbance at 570 nm of dye extracted solution was measured. The fraction of surviving cells was calculated relative to non-treated controls. Results were averaged from at least two to three independent experiments. For IC50 determination, 3×10^3 cells per well of a 96-well plate were seeded one day prior to treatment by serially diluted drugs or in combination with indicated protein/peptides. The viability of treated cells was quantified by their ability to reduce tetrazolium salt 3-(4,5-dimethylthiazol-2-y)-2,5-diphenyl tetrasodium bromide (MTT, Sigma) to a formazan dye whose absorbance is detectable at 570 nm. The IC50 value was defined as the dose of taxol that inhibited cell growth by 50%. […]

Clone 18 [2] = tested on: Clone 18
Description: as §1

[3] = agent added with adriamycin, etoposide, vinblastine, vincristine or epothilone B

Compound: COc1cccc2c1C(=O)c1c(O)c3c(c(O)c1C2=O)C[C@@](O)(C(=O)CO)C[C@@H]3O[C@H]1C[C@H](N)[C@H](O)[C@H](C)O1 [Adriamycin, adriamycin]
- Reduced killing of clone 18 cells (versus parental cells) (Clone 18 [1]): No evidence of reduced killing

Compound: C/C(=C\c1csc(C)n1)[C@@H]1C[C@@H]2O[C@]2(C)CCC[C@H](C)[C@H](O)[C@@H](C)C(=O)C(C)(C)[C@@H](O)CC(=O)O1 [Epothilone B]
- Reduced killing of clone 18 cells (versus parental cells) (Clone 18 [1]): No evidence of reduced killing
- Fold of resistance (Clone 18/M2182tTA) (Clone 18 [1]): 0.9

Compound: COc1cc([C@@H]2c3cc4c(cc3[C@@H](O[C@@H]3O[C@@H]5CO[C@@H](C)O[C@H]5[C@H](O)[C@H]3O)[C@H]3COC(=O)[C@H]23)OCO4)cc(OC)c1O [Etoposide, etoposide]
- Reduced killing of clone 18 cells (versus parental cells) (Clone 18 [1]): No evidence of reduced killing

Compound: CC(=O)O[C@H]1C(=O)[C@@]2(C)[C@H]([C@H](OC(=O)c3ccccc3)[C@]3(O)C[C@H](OC(=O)[C@H](O)[C@@H](NC(=O)c4ccccc4)c4ccccc4)C(C)=C1C3(C)C)[C@]1(OC(C)=O)CO[C@@H]1C[C@@H]2O [Taxol, Paclitaxel]
- Fold of resistance (Clone 18/M2182tTA) (Clone 18 [1]): approximately two and a half-fold greater

Compound: CC[C@]1(O)C[C@@H]2CN(CCc3c([nH]c4ccccc34)[C@@](C(=O)OC)(c3cc4c(cc3OC)N(C)[C@H]3[C@@](O)(C(=O)OC)[C@H](OC(C)=O)[C@]5(CC)C=CCN6CC[C@]43[C@@H]65)C2)C1 [Vinblastine, vinblastine]
- Reduced killing of clone 18 cells (versus parental cells) (Clone 18 [1]): No evidence of reduced killing

Compound: CC[C@]1(O)C[C@H]2CN(CCc3c([nH]c4ccccc34)[C@@](C(=O)OC)(c3cc4c(cc3OC)N(C=O)[C@H]3[C@@](O)(C(=O)OC)[C@H](OC(C)=O)[C@]5(CC)C=CCN6CC[C@]43[C@@H]65)C2)C1 [Vincristine, vincristine]
- Reduced killing of clone 18 cells (versus parental cells) (Clone 18 [1]): No evidence of reduced killing

Compound: GVITRIR (human) [ABT-510]
- Effect on killing of naive M2182tTA cells by taxol (M2182tTA; MTT assay): not and absence of any detectable effect
- Effect on taxol resistance / taxol cytotoxicity of clone 18 (Clone 18 [1]): absence of any detectable effect
- Effect on taxol resistance / taxol cytotoxicity of clone 18 (Clone 18 [1]; listed as ABT510): no effect

Compound: KRFYGGMWKK [4NGG]
- Effect on taxol resistance / taxol cytotoxicity of clone 18 (Clone 18 [1]): no effect

Compound: KRFYVVMWKK [4N1K]
- Effect on taxol resistance / taxol cytotoxicity of clone 18 (Clone 18 [1]): dose-dependent partial reversal

Compound: TSP-1: TSP-1 purified from human platelets; extracellular matrix bound adhesive glycoprotein
- Effect on sensitivity of M2182tTA cells to other chemotherapeutic drugs (M2182tTA; [3]): sensitization was not observed
- Effect on killing of naive M2182tTA cells by taxol (M2182tTA; MTT assay): reduced survival
- Taxol-induced apoptosis (Clone 18 cells): dramatically and synergistically increased
- Ability of TSP-1 alone to reduce survival and induce apoptosis (Clone 18 [1]; TSP-1 alone, at the dosage added to cultures of clone 18 cells): only limited ability to reduce survival and induce apoptosis
- Effect on killing of clone 18 cells by other chemotherapeutic agents (Clone 18 [1]; [3]): no effects
- Effect on taxol resistance / taxol cytotoxicity of clone 18 (Clone 18 [2]): dose-dependent partial reversal

Compound: pertussus toxin
- Cells that survive taxol treatment (M2182tTA; M2182tTA, 0.5 μg/ml pertussis toxin, MTT assay): An increase in cells that survive taxol treatment
